# From patent US10633419B2, “Immunomodulators” (BRISTOL-MYERS SQUIBB COMPANY, priority 2014, dated 2020)
# Biological target: T1, PD-L1 (Homo sapiens, UniProt Q9NZQ7)
# T1 construct: hPDL1(19-239)-TVMV-His; made in house; host or cells: HEK293T
# Assay: PD-1/PD-L1 Homogenous Time-Resolved Fluorescence (HTRF) binding assay (PD-1-Ig/PD-L1-His)
# Conditions: inhibition of PD-1-Ig binding to PD-L1-TVMV-His; value given as number; read-out: HTRF IC50
# Method in brief: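 HTRF competition in dPBS with 0.1% BSA and 0.05% Tween-20: 20 nM PD-1-Ig added after 15 min compound pre-incubation with 10 nM PD-L1-His, then another 15 min. Signal (665/620 nm) after 30 min with APC anti-His (20 nM) and Eu anti-Ig (1 nM).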
# T1 sequence (Q9NZQ7 with tags, fused parts or gaps): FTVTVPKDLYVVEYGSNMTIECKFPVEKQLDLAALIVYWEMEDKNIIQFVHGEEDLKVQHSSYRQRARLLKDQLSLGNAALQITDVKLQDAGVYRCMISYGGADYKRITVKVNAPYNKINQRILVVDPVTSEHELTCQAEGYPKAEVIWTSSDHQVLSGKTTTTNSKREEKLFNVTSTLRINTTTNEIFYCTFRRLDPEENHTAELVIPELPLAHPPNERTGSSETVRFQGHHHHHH
row,SMILES,IC50
1,CCCCCCCCCCCCCCCC(=O)N[C@@H](CCn1cc(C[C@H](NC(=O)CNC(=O)[C@@H]2CSCC(=O)N[C@@H](Cc3ccc(O)cc3)C(=O)N(C)[C@@H](C)C(=O)N[C@@H](CC(=O)O)C(=O)N3CCC[C@H]3C(=O)N[C@@H](Cc3c[nH]cn3)C(=O)N[C@@H](CCCCN)C(=O)N3C[C@H](O)C[C@H]3C(=O)N[C@@H](Cc3c[nH]c4ccccc34)C(=O)N[C@@H](CCCCN)C(=O)N[C@@H](Cc3cn(CC(=O)O)c4ccccc34)C(=O)N(C)[C@@H](CCCC)C(=O)N(C)[C@@H](CCCC)C(=O)N[C@@H](CCC(=O)O)C(=O)N2)C(N)=O)nn1)C(=O)O [Example 14072],8.5 nM
2,CCCC[C@H]1C(=O)N(C)[C@@H](CCCC)C(=O)N[C@@H](CC(C)C)C(=O)N[C@H](C(=O)NCC(=O)N[C@@H](Cc2cn(CCOCCOCCOCCOCCOCCOCCOCCOCCOCCOCCOCCNC(=O)C[C@H](NC(=O)CCCCCCCCCCCCCCCCC(=O)O)C(=O)O)nn2)C(=O)O)CSCC(=O)N[C@@H](Cc2ccc(O)cc2)C(=O)N(C)[C@@H](C)C(=O)N[C@@H](CC(N)=O)C(=O)N2CCC[C@H]2C(=O)N[C@@H](CN)C(=O)N[C@@H](CC(C)C)C(=O)N2C[C@H](O)C[C@H]2C(=O)N[C@@H](Cc2c[nH]c3ccccc23)C(=O)N[C@@H](CCN)C(=O)N[C@@H](Cc2cn(CC(=O)O)c3ccccc23)C(=O)N1C [Example 14103],14 nM

# Other lines, results leading:
row,IC50,SMILES
1,14 nM,CCCC[C@H]1C(=O)N(C)[C@@H](CCCC)C(=O)N[C@@H](CC(C)C)C(=O)N[C@H](C(=O)NCC(=O)N[C@@H](Cc2cn(CC[C@H](NC(=O)CCCCCCCCCCCCCCCCC(=O)O)C(=O)O)nn2)C(=O)O)CSCC(=O)N[C@@H](Cc2ccc(O)cc2)C(=O)N(C)[C@@H](C)C(=O)N[C@@H](CC(N)=O)C(=O)N2CCC[C@H]2C(=O)N[C@@H](CN)C(=O)N[C@@H](CC(C)C)C(=O)N2C[C@H](O)C[C@H]2C(=O)N[C@@H](Cc2c[nH]c3ccccc23)C(=O)N[C@@H](CCN)C(=O)N[C@@H](Cc2cn(CC(=O)O)c3ccccc23)C(=O)N1C [Example 14095]
2,790 nM,CCCC[C@H]1C(=O)N(C)[C@@H](CCCC)C(=O)N[C@@H](CC(C)C)C(=O)N[C@H](C(=O)NCC(=O)N[C@@H](Cc2cn(CC[C@H](NC(=O)CCCCCCCCCCCCCCCCC(=O)O)C(=O)O)nn2)C(N)=O)CSCC(=O)N[C@@H](Cc2ccc(O)cc2)C(=O)N(C)[C@@H](C)C(=O)N[C@@H](CC(N)=O)C(=O)N2CCC[C@H]2C(=O)N[C@@H](CN)C(=O)N[C@@H](CC(C)C)C(=O)N2C[C@H](O)C[C@H]2C(=O)N[C@@H](Cc2c[nH]c3ccccc23)C(=O)N[C@@H](CCN)C(=O)N[C@@H](Cc2cn(CC(=O)O)c3ccccc23)C(=O)N1C [Example 14096]

# Same assay, conditions: inhibition of PD-1-Ig binding to PD-L1-TVMV-His; value given as range class; read-out: HTRF IC50
row,SMILES,IC50
1,CCCC[C@H]1C(=O)N(C)[C@@H](CCCC)C(=O)N[C@@H](CCC(=O)O)C(=O)N[C@H](C(=O)NCC(=O)N[C@@H](Cc2cn(CC[C@H](NC(=O)CCCCCCCCCCCCCCC(=O)O)C(=O)O)nn2)C(=O)NCC(N)=O)CSCC(=O)N[C@@H](Cc2ccc(O)cc2)C(=O)N(C)[C@@H](C)C(=O)N[C@@H](CC(=O)O)C(=O)N2CCC[C@H]2C(=O)N[C@@H](Cc2c[nH]cn2)C(=O)N[C@@H](CCC(N)=O)C(=O)N2C[C@H](O)C[C@H]2C(=O)N[C@@H](Cc2c[nH]c3ccccc23)C(=O)N[C@@H](CO)C(=O)N[C@@H](Cc2c[nH]c3ccccc23)C(=O)N1C [Example 14069],10 to 99 nM
2,CCCC[C@H]1C(=O)N(C)[C@@H](CCCC)C(=O)N[C@@H](CCC(=O)O)C(=O)N[C@H](C(=O)NCC(=O)N[C@@H](Cc2cn(CC[C@H](NC(=O)CCCCCCCCCCCCCCC(=O)O)C(=O)O)nn2)C(=O)N[C@@H](CC(=O)O)C(N)=O)CSCC(=O)N[C@@H](Cc2ccc(O)cc2)C(=O)N(C)[C@@H](C)C(=O)N[C@@H](CC(=O)O)C(=O)N2CCC[C@H]2C(=O)N[C@@H](Cc2c[nH]cn2)C(=O)N[C@@H](CCCCN)C(=O)N2C[C@H](O)C[C@H]2C(=O)N[C@@H](Cc2c[nH]c3ccccc23)C(=O)N[C@@H](CCCCN)C(=O)N[C@@H](Cc2cn(CC(=O)O)c3ccccc23)C(=O)N1C [Example 14071],10 to 99 nM
3,CCCC[C@H]1C(=O)N2CCC[C@@H]2C(=O)N[C@@H](CC(=O)O)C(=O)N[C@@H](C(C)C)C(=O)N(C)[C@@H](Cc2ccccc2)C(=O)N[C@@H](CCCN)C(=O)N2CCC[C@@H]2C(=O)N[C@@H](Cc2c[nH]c3ccccc23)C(=O)N[C@@H](Cc2ccc(O)cc2)C(=O)N[C@@H](CC(C)C)C(=O)N[C@H](C(=O)NCC(=O)N[C@@H](Cc2cn(CC[C@H](NC(=O)CCCCCCCCCCCCCCC(=O)O)C(=O)O)nn2)C(N)=O)CSCC(=O)N[C@@H](Cc2cc(F)c(F)c(F)c2)C(=O)N(C)[C@@H](Cc2ccccc2)C(=O)N1C [Example 14073],10 to 99 nM
4,CCCC[C@H]1C(=O)N2C[C@H](O)C[C@@H]2C(=O)N[C@@H](CC(=O)O)C(=O)N[C@@H](C(C)C)C(=O)N(C)[C@@H](Cc2ccccc2)C(=O)N[C@@H](CC(=O)O)C(=O)N2CCC[C@@H]2C(=O)N[C@@H](Cc2c[nH]c3ccccc23)C(=O)N[C@@H](Cc2ccc(O)cc2)C(=O)N[C@@H](CC(C)C)C(=O)N[C@H](C(=O)NCC(=O)N[C@@H](Cc2cn(CC[C@H](NC(=O)CCCCCCCCCCCCCCC(=O)O)C(=O)O)nn2)C(N)=O)CSCC(=O)N[C@@H](Cc2cc(F)c(F)c(F)c2)C(=O)N(C)[C@@H](Cc2ccccc2)C(=O)N1C [Example 14074],10 to 99 nM

# Results, then the compound that gave them:
row,IC50,SMILES
1,10 to 99 nM,CCCC[C@H]1C(=O)N(C)[C@@H](CCCC)C(=O)N[C@@H](CCC(=O)O)C(=O)N[C@H](C(=O)NCC(=O)N[C@@H](Cc2cn(CC[C@H](NC(=O)CCCCCCCCCCCCCCC(=O)O)C(=O)O)nn2)C(N)=O)CSCC(=O)N[C@@H](Cc2ccc(O)cc2)C(=O)N(C)[C@@H](C)C(=O)N[C@@H](CC(=O)O)C(=O)N2CCC[C@H]2C(=O)N[C@@H](Cc2c[nH]cn2)C(=O)N[C@@H](CCC(N)=O)C(=O)N2C[C@H](O)C[C@H]2C(=O)N[C@@H](Cc2c[nH]c3ccccc23)C(=O)N[C@@H](CO)C(=O)N[C@@H](Cc2c[nH]c3ccccc23)C(=O)N1C [Example 14068]
2,10 to 99 nM,CCCC[C@H]1C(=O)N(C)[C@@H](CCCC)C(=O)N[C@@H](CCC(=O)O)C(=O)N[C@H](C(=O)NCC(=O)N[C@@H](Cc2cn(CC[C@H](NC(=O)CCCCCCCCCCCCCCC(=O)O)C(=O)O)nn2)C(N)=O)CSCC(=O)N[C@@H](Cc2ccc(O)cc2)C(=O)N(C)[C@@H](C)C(=O)N[C@@H](CC(N)=O)C(=O)N2CCC[C@H]2C(=O)N[C@@H](CN)C(=O)N[C@@H](CC(C)C)C(=O)N2C[C@H](O)C[C@H]2C(=O)N[C@@H](Cc2c[nH]c3ccccc23)C(=O)N[C@@H](CO)C(=O)N[C@@H](Cc2cn(CC(=O)O)c3ccccc23)C(=O)N1C [Example 14070]
3,10 to 99 nM,CCCC[C@H]1C(=O)N(C)[C@@H](CCCC)C(=O)N[C@@H](CCC(=O)O)C(=O)N[C@H](C(=O)NCC(=O)N[C@@H](Cc2cn(CC[C@H](NC(=O)CCCCCCCCCCCCCCC(=O)O)C(=O)O)nn2)C(N)=O)CSCC(=O)N[C@@H](Cc2ccc(O)cc2)C(=O)N(C)[C@@H](C)C(=O)N[C@@H](CC(=O)O)C(=O)N2CCC[C@H]2C(=O)N[C@@H](Cc2c[nH]cn2)C(=O)N[C@@H](CCCCN)C(=O)N2C[C@H](O)C[C@H]2C(=O)N[C@@H](Cc2c[nH]c3ccccc23)C(=O)N[C@@H](CCCCN)C(=O)N[C@@H](Cc2cn(CC(=O)O)c3ccccc23)C(=O)N1C [Example 14075]
